Assay results: patent US5244916A, “Inhibition of respiratory burst using posttranslational modification inhibitors” (The Scripps Research Institute, priority 1992, dated 1993)

Experiments:
[1] = test system: NADPH oxidase in HL-60 cells; assay: Inhibition of NADPH oxidase activation / O2- generation in HL-60 cells (stimulus not singled out); format: cell-based
Experimental: HL-60 cells were maintained in stationary culture in RPMI 1640 medium (Gibco, Grand Island, NY) containing 10% fetal bovine serum at 37° C in an atmosphere of 95 air and 5% CO2. The cells (about 8×10^5 /ml) were differentiated into neutrophil-like cells by treatment with 1.3% DMSO for six days (Harris, et al., J. Leukocyte Biol. 37: 407-422 (1985)). The cells were treated with the indicated levels of compactin or lovastatin by addition of a 1,000-fold concentrated stock solution to the appropriate concentration on day 4 of differentiation. […] In studies of the protective effect of mevalonic acid, the compound was added as the mevalonolactone (Sigma Chemical Co., St. Louis, MO) at a concentration of 1 mM to the cell culture on days 4 to 6. Similarly, cholesterol was added in the form of LDL prepared according to the method of Curtiss and Edgington (Curtiss, et al., J. Biol. Chem. 257: 15213-15221 (1991)) at a final concentration of 50 μg/ml; ubiquinone (Sigma Chemical Co., St. Louis, MO) was added as Coenzyme Q-10 at a final concentration of 0.5 mM; and dolichol (Sigma Chemical Co., St. Louis, MO) was added as a dispersion in phosphatidylcholine at a final concentration of 0.5 mM (Cutts, et al., J. Cell Physiol. 139: 550-555 (1989)). O2 --formation by HL-60 cells was assessed by the SOD-sensitive reduction of cytochrome c. Cells were suspended at 1×10^7 /ml in Krebs-Ringer Hepes buffer with 5.5 mM glucose (KRHG) and 50-100μl of cells were added to a cuvette containing 100 μM cytochrome c (type III, Sigma Chemical Co., St. Louis, MO), ±300 μg/ml SOD (Sigma Chemical Co., St. Louis, MO) in 700-750 μl KRHG. Cytochalasin b (Sigma Chemical Co., St. Louis, MO) was added to a final concentration of 5 μg/ml, and the cells were incubated at 37° C. for five minutes while a stable baseline at a wavelength of 550 nm was obtained. O2 --formation was initiated by the addition of 1 μM N-formylmethionylleucylphenylalanine (FMLP; Sigma Chemical Co., St. Louis, MO) or 1μg/ml phorbol myristate acetate (PMA; Sigma Chemical Co., St. Louis, MO). Cytochrome c reduction at 550nm was continuously monitored and maximal rate and extent of the reaction calculated.

[2] = HL-60 cell viability by propidium iodide uptake (flow cytometry); conditions: human, hl-60 cells
Experimental: (§1) HL-60 cells were maintained in stationary culture in RPMI 1640 medium (Gibco, Grand Island, NY) containing 10% fetal bovine serum at 37° C in an atmosphere of 95 air and 5% CO2. The cells (about 8×10^5 /ml) were differentiated into neutrophil-like cells by treatment with 1.3% DMSO for six days (Harris, et al., J. Leukocyte Biol. 37: 407-422 (1985)). […] […] In studies of the protective effect of mevalonic acid, the compound was added as the mevalonolactone (Sigma Chemical Co., St. Louis, MO) at a concentration of 1 mM to the cell culture on days 4 to 6. Similarly, cholesterol was added in the form of LDL prepared according to the method of Curtiss and Edgington (Curtiss, et al., J. Biol. Chem. 257: 15213-15221 (1991)) at a final concentration of 50 μg/ml; ubiquinone (Sigma Chemical Co., St. Louis, MO) was added as Coenzyme Q-10 at a final concentration of 0.5 mM; and dolichol (Sigma Chemical Co., St. Louis, MO) was added as a dispersion in phosphatidylcholine at a final concentration of 0.5 mM (Cutts, et al., J. Cell Physiol. 139: 550-555 (1989)).
(§2) Cell viability was determined by uptake of propidium iodide (537-059; Calbiochem-Behring Corp., La Jolla, CA), detected from the emission fluorescence at 625/35 nm using a DM560 dichronic mirror (Krishan, J. Cell. Biol. 66: 188-192 (1975)). Expression of N-formyl peptide receptor was determined using fluorescein-labeled N-CHONle-Leu-Phe-Nle-Tyr-Lys (Molecular Probes, Inc., Eugene, OR) essentially by the method of Sklar and Finney (Sklar and Finney, Cytometry 3: 161-165 (1982)). Specificity of ligand binding was determined in the presence of 4 mM unlabeled T-boc peptide. CD14 expression was determined using monoclonal antibody 3C10 at a dilution of 1:1,000 (see Goyert and Ferrero, in Leucocyte Typing III: White Cell Differentiation Antigens, McMichael, ed., Oxford Univ. Press, NY, pp. 613-619 (1988)), with detection using a fluorescein-labeled secondary antibody. Flow cytometric analyses were performed on a FACSIV (registered trademark of Becton-Dickinson, San Jose, CA) equipped with a 2W argon laser (Coherent Inc., Palo Alto, collected in list mode and analyzed using the Consort 30 program (Becton-Dickinson, San Jose, CA) after collecting 10,000 events.

HL-60 cells = assay: as above
Experimental: as §1, §2

[3] = test system: N-formyl peptide receptor; assay: HL-60 differentiation: N-formyl peptide receptor expression (flow cytometry); format: cell-based; conditions: compactin-treated cells
Experimental: HL-60 cells were maintained in stationary culture in RPMI 1640 medium (Gibco, Grand Island, NY) containing 10% fetal bovine serum at 37° C in an atmosphere of 95 air and 5% CO2. The cells (about 8×10^5 /ml) were differentiated into neutrophil-like cells by treatment with 1.3% DMSO for six days (Harris, et al., J. Leukocyte Biol. 37: 407-422 (1985)). The cells were treated with the indicated levels of compactin or lovastatin by addition of a 1,000-fold concentrated stock solution to the appropriate concentration on day 4 of differentiation. […]
Cell viability was determined by uptake of propidium iodide (537-059; Calbiochem-Behring Corp., La Jolla, CA), detected from the emission fluorescence at 625/35 nm using a DM560 dichronic mirror (Krishan, J. Cell. Biol. 66: 188-192 (1975)). Expression of N-formyl peptide receptor was determined using fluorescein-labeled N-CHONle-Leu-Phe-Nle-Tyr-Lys (Molecular Probes, Inc., Eugene, OR) essentially by the method of Sklar and Finney (Sklar and Finney, Cytometry 3: 161-165 (1982)). Specificity of ligand binding was determined in the presence of 4 mM unlabeled T-boc peptide. […]
HL-60 differentiation was assessed using two distinct markers: appearance of N-formyl peptide receptors and appearance of the CD14 antigen.

Question: What does the source list for `CC[C@H](C)C(=O)O[C@H]1CCC=C2C=C[C@H](C)[C@H](CC[C@@H]3C[C@@H](O)CC(=O)O3)[C@H]21` [compactin]?
Answer: inhibition of NADPH oxidase activation, effective concentrations [1]: micromolar concentrations; inhibition at 10 µM ([1]; Homo sapiens, HL-60, 10 μM compactin, response to FMLP or PMA, read-out: inhibition of O2- formation): > 85%; IC50 ([1]; Homo sapiens, DMSO-differentiated HL-60, response to FMLP or PMA, read-out: half-maximal inhibition of O2- formation): 400 to 2000 nM; ability of HL-60 cells to generate O2- ([1]; response to receptor stimuli and downstream activators): markedly inhibited; viability at 0.4 µM [2]: 100 ± 1.6%; viability at 2 µM [2]: 95 ± 1.2%; viability at 4 µM [2]: 97 ± 0.9%; viability at 10 µM [2]: 96 ± 1.2%; HL-60 cell viability (HL-60 cells; compactin treatment, concentrations of the studies): not affected; cell viability when inhibitor added at day 1 of differentiation (HL-60 cells; higher concentrations of each drug): somewhat decreased; N-formyl peptide receptor expression [3]: normal
